Measured values reported in patent US6833456B2, “Indolyl-urea derivatives of thienopyridines useful as antiangiogenic agents, and methods for their use” (Agouron Pharmaceuticals, Inc., priority 2002, dated 2004).
pIC50, pKi: −log10 of the molar value. “And” between values parts separate entries of the source, which are not always exact repeats. Identical values can stand only once.

Columns and labels:
[1] = test system: human umbilical vein endothelial cells (HUVEC); experiment: HUVEC+VEGF proliferation assay; assay type: cell-based; settings: Homo sapiens, HUVEC, 72 h, VEGF 6 ng/mL, MTT
Method: This assay determines the ability of a test compound to inhibit the growth factor-stimulated proliferation of human umbilical vein endothelial cells (“HUVEC”). HUVEC cells (passage 3-4, Clonetics, Corp.) were thawed into EGM2 culture medium (Clonetics Corp) in T75 flasks. Fresh EGM2 medium was added to the flasks 24 hours later. Four or five days later, cells were exposed to another culture medium (F12K medium supplemented with 10% fetal bovine serum (FBS), 60 μg/mL endothelial cell growth supplement (ECGS), and 0.1 mg/mL heparin). Exponentially-growing HUVEC cells were used in experiments thereafter. Ten to twelve thousand HUVEC cells were plated in 96-well dishes in 100 μl of rich, culture medium (described above). The cells were allowed to attach for 24 hours in this medium. The medium was then removed by aspiration and 105 μl of starvation media (F12K+1% FBS) was added to each well. After 24 hours, 15 μl of test agent dissolved in 1% DMSO in starvation medium or this vehicle alone was added into each treatment well; the final DMSO concentration was 0.1%. One hour later, 30 μl of VEGF (30 ng/mL) in starvation media was added to all wells except those containing untreated controls; the final VEGF concentration was 6 ng/mL. Cellular proliferation was quantified 72 hours later by MTT dye reduction, at which time cells were exposed for 4 hours MTT (Promega Corp.). Dye reduction was stopped by addition of a stop solution (Promega Corp.) and absorbance at 595 nm was determined on a 96-well spectrophotometer plate reader.

[2] = molecular target: T1, unphosphorylated VEGF-R2Δ50 (FLVK) (Homo sapiens, UniProt P35968, DEL940-989/E990V); experiment: VEGF-R2 coupled spectrophotometric assay, unphosphorylated construct (FLVK); assay type: biochemical; settings: for inhibition at 0.05 µM: percent inhibition at 50 nM
T1 construct: VEGF-R2Δ50 contains residues 806-939 and 990-1171; made in house; host or cells: baculovirus/insect cell system
T1 sequence (P35968 with tags, fused parts or gaps DEL940-989/E990V limits assumed): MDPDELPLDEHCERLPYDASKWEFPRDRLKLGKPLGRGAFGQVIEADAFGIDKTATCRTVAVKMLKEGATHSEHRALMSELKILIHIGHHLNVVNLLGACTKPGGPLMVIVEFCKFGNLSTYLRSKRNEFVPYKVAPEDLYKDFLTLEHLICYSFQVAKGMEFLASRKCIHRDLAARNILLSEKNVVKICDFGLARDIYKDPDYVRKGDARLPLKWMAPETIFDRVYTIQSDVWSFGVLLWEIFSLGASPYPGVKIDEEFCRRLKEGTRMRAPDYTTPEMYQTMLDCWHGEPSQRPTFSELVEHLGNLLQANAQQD
How it was run: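 Continuous coupled assay (PEP, PK, LDH; NADH loss at 340 nm) in 200 mM HEPES pH 7.5 with 3 mM ATP, 20 mM poly(E4Y1), 60 mM MgCl2 plus 2 mM MnCl2, started with 5-40 nM non-autophosphorylated VEGF-R2Δ50. Ki values from activity across compound concentrations, Morrison fit.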

KDR (VEGFR2) = molecular target: T2, KDR (VEGFR2) (Homo sapiens, UniProt P35968); experiment: KDR (VEGFR2) phosphorylation in PAE-KDR cells assay; assay type: cell-based; settings: PAE cells overexpressing human KDR, VEGF stimulated; read-out: PAE KDR autophos IC50
T2 construct: expressed in transfected cells; host or cells: porcine aorta endothelial (PAE) cells
T2 sequence (P35968 20-1356): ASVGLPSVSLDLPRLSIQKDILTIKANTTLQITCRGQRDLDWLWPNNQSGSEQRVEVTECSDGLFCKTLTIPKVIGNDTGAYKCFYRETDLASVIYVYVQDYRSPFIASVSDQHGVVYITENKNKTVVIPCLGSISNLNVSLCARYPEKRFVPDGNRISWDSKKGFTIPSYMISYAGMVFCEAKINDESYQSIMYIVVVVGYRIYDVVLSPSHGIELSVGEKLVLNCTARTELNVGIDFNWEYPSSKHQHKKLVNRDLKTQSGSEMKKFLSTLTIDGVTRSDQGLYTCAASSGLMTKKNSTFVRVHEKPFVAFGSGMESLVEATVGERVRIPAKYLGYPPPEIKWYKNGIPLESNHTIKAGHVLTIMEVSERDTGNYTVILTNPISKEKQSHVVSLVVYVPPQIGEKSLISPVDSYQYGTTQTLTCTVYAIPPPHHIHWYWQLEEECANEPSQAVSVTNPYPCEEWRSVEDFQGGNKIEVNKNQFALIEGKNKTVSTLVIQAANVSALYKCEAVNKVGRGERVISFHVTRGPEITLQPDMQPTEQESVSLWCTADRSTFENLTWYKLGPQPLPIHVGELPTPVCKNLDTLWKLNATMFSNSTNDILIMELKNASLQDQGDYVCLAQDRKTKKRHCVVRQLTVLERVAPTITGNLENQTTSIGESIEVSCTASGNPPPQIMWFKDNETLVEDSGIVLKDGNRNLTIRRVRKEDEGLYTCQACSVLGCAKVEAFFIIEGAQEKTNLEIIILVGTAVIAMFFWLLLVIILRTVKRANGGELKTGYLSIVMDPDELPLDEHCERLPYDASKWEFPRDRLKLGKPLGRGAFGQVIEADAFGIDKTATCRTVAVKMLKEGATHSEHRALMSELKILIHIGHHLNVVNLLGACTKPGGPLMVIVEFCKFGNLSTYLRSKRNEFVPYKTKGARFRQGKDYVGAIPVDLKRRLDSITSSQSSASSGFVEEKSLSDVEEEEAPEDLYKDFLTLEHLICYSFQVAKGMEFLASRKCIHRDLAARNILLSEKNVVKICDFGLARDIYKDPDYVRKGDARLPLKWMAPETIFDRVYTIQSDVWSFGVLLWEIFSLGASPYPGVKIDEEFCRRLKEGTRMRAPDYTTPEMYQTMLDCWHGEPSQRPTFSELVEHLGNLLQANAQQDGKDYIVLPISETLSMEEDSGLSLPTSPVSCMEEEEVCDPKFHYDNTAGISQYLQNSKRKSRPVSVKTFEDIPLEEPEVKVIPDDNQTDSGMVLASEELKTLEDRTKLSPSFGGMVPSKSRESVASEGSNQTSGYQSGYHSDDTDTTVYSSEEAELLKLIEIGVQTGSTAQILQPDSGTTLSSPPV
Method: This assay determines the ability of a test compound to inhibit the autophosphorylation of KDR in porcine aorta endothelial (PAE)-KDR cells. PAE cells that overexpress human KDR were used in this assay. The cells were cultured in Ham's F12 media supplemented with 10% fetal bovine serum (FBS) and 400 ug/mL G418. Thirty thousands cells were seeded into each well of a 96-well plate in 75 μL of growth media and allowed to attach for 6 hours at 37° C. Cells were then exposed to the starvation media (Ham's F12 media supplemented with 0.1% FBS) for 16 hours. After the starvation period was over, 10 μL of test agent in 5% DMSO in starvation media were added to the test wells and 10 μL of the vehicle (5% DMSO in starvation media) were added into the control wells. The final DMSO concentration in each well was 0.5%. Plates were incubated at 37° C. for 1 hour and the cells were then stimulated with 500 ng/ml VEGF (commercially available from R & D System) in the presence of 2 mM Na3VO4 for 8 minutes. The cells were washed once with 1 mm Na3VO4 in HBSS and lysed by adding 50 μL per well of lysis buffer. One hundred μL of dilution buffer were then added to each well and the diluted cell lysate was transferred to a 96-well goat ant-rabbit coated plate (commercially available from Pierce) which was pre-coated with Rabbit anti Human Anti-flk-1 C-20 antibody (commercially available from Santa Cruz). The plates were incubated at room temperature for 2 hours and washed seven times with 1% Tween 20 in PBS. HRP-PY20 (commercially available from Santa Cruz) was diluted and added to the plate for a 30-minute incubation. Plates were then washed again and TMB peroxidase substrate (commercially available from Kirkegaard & Perry) was added for a 10-minute incubation. One hundred μL of 0.09 N H2SO4 was added to each well of the 96-well plates to stop the reaction. Phosphorylation status was assessed by spectrophotometer reading at 450 nm. IC50 values were calculated by curve fitting using a four-parameter analysis.

PDGFRβ = molecular target: T3, PDGFRβ (Homo sapiens, UniProt P09619); experiment: PAE-PDGFRβ phosphorylation in PAE-PDGFRB cells assay; assay type: cell-based; settings: PAE cells overexpressing human PDGFRβ, PDGF-BB stimulated; read-out: PAE PDGFR autophos IC50
T3 construct: expressed in transfected cells; host or cells: porcine aorta endothelial (PAE) cells
T3 sequence (P09619 33-1106): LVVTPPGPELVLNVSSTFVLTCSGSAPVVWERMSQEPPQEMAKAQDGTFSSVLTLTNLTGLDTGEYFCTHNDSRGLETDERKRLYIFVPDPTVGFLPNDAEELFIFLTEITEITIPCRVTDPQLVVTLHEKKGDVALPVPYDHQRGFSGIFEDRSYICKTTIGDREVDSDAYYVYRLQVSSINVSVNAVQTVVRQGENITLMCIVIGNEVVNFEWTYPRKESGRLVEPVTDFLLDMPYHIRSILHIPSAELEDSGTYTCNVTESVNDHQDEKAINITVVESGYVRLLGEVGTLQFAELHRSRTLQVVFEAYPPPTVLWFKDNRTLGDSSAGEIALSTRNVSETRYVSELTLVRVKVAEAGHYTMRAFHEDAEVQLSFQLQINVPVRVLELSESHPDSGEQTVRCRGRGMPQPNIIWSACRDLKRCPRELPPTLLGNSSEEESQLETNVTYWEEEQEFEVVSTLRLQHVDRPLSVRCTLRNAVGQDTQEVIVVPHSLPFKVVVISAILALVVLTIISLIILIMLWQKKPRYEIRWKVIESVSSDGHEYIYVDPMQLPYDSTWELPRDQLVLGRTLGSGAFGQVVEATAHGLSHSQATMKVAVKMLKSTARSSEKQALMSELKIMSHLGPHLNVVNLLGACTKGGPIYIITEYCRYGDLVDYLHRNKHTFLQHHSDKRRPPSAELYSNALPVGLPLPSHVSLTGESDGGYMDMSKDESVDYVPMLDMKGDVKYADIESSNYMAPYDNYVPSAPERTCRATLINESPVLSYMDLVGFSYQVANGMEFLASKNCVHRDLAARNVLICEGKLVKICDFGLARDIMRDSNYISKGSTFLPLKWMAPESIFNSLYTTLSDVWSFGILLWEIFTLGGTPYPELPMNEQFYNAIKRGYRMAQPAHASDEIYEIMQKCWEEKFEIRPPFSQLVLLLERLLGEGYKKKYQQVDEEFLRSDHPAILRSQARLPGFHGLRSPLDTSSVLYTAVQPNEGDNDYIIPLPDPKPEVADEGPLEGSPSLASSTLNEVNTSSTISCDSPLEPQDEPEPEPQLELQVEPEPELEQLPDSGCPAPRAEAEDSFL
How it was run: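 PAE cells overexpressing human PDGFRβ, serum-starved 16 h (0.1% FBS), compound 1 h at 37° C (0.5% DMSO), then 1 μg/mL PDGF-BB with 2 mM Na3VO4 for 8 min. Receptor captured by anti-PDGFRβ, phosphotyrosine detected by HRP-PY20/TMB at 450 nm; IC50 by four-parameter fit.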

Row | SMILES | pIC50 [1] | pKi [2] | inhibition at 0.05 µM [2] | pIC50 (KDR (VEGFR2)) | pIC50 (PDGFRβ)
1 | C#CCNC(=O)n1c(C)cc2cc(Nc3ccnc4cc(C(=O)N5CCC[C@@H]5CO)sc34)ccc21 [Example 1e, 5-[2-(2R-Hydroxymethyl-pyrrolidine-1-carbonyl)-thieno[3,2-b]pyridin-7-ylamino]-2-methyl-indole-1-carboxylic acid prop-2-ynylamide] | 9.74 | 9.29 | 97% | 9.14 and 9.39 | 7.95
2 | CO[C@H]1CN(C(=O)c2cc3nccc(Nc4ccc5c(c4)cc(C)n5C(=O)NC4CC4)c3s2)C[C@@H]1OC [Example 1s, 5-[2-(3S,4S-Dimethoxy-pyrrolidine-1-carbonyl)-thieno[3,2-b]pyridin-7-ylamino]-2-methyl-indole-1-carboxylic acid cyclopropylamide] | 9.51 | 8.96 | 98% | 9.38 and 9.15 | 6.78 and 7.01
3 | CNC(=O)n1c(C)cc2c(F)c(Oc3ccnc4cc(-c5nc(C(C)(C)O)cs5)sc34)ccc21 [Example 3k, 4-Fluoro-5-{2-[4-(1-hydroxy-1-methyl-ethyl)-thiazol-2-yl]-thieno[3,2-b]pyridin-7-yloxy}-2-methyl-indole-1-carboxylic acid methylamide] | – | 10.15 | 100% | 9.52 | 7.74
4 | C#CCNC(=O)n1c(C)cc2cc(Oc3ccnc4cc(C(=O)N5C[C@H](OC)[C@@H](OC)C5)sc34)ccc21 [Example 4q, 5-[2-(3S,4S-Dimethoxy-pyrrolidine-1-carbonyl)-thieno[3,2-b]pyridin-7-yloxy]-2-methyl-indole-1-carboxylic acid prop-2-ynylamide] | 9.57 | 9.32 | 98% | 9.59 | –
5 | C#CCNC(=O)n1c(C)cc2c(F)c(Oc3ccnc4cc(C(=O)N5CC[C@@H](O)C5)sc34)ccc21 [Example 5p, 4-Fluoro-5-[2-((R)-3-hydroxy-pyrrolidine-1-carbonyl)-thieno[3,2-b]pyridin-7-yloxy]-2-methyl-indole-1-carboxylic acid prop-2-ynylamide] | – | 10.08 | 100% | 9.46 | 8.34
6 | C#CCNC(=O)n1c(C)cc2cc(Nc3ccnc4cc(C(=O)N5CCC[C@@H]5COC)sc34)ccc21 [Example 7d, 5-[2-(2R-Methoxymethyl-pyrrolidine-1-carbonyl)-thieno[3,2-b]pyridin-7-ylamino]-2-methyl-indole-1-carboxylic acid prop-2-ynylamide] | – | 9.30 | 96% | 9.59 | 7.21
7 | CNC(=O)n1c(C)cc2cc(Oc3ccnc4cc(C(=O)N5C[C@H](OC)[C@@H](OC)C5)sc34)ccc21 [Example 8b, 5-[(2-{[(3S,4S)-3,4-Dimethoxypyrrolidin-1-yl]carbonyl}thieno[3,2-b]pyridin-7-yl)oxy]-2-dimethyl-1H-indole-1-carboxylic acid methylamide] | – | 9.69 | 97% | 9.62 | –
8 | CO[C@H]1CCN(C(=O)c2cc3nccc(Oc4ccc5c(c4)cc(C)n5C(=O)NCCO)c3s2)C1 [Example 9c, 5-[2-(3S-Methoxy-pyrrolidine-1-carbonyl)-thieno[3,2-b]pyridin-7-yloxy]-2-methyl-indole-1-carboxylic acid (2-hydroxy-ethyl)-amide] | – | 8.49 | 81% | 8.84 and 8.96 | 7.25
9 | CCNC(=O)n1c(C)cc2cc(Oc3ccnc4cc(C(=O)N5CC[C@H](OC)C5)sc34)ccc21 [Example 9e, 5-[2-(3S-Methoxy-pyrrolidine-1-carbonyl)-thieno[3,2-b]pyridin-7-yloxy]-2-methyl-indole-1-carboxylic acid ethylamide] | – | 9.98 | 99% | 9.62 | 7.59
